In ChEMBL document CHEMBL2069183, “Inhibitor scaffold for the histone lysine demethylase KDM4C (JMJD2C)” (Bioorg Med Chem Lett, 2012):
Active and inactive are the calls of the source. No cut-off for these calls is given here.

Columns and labels:
[1] = molecular target: T1, Lysine-specific demethylase 4C (Homo sapiens, UniProt Q9H3R0); experiment: Inhibition of KDM4C catalytic core-mediated demethylation of ARK(Me)3STGGK after 30 mins by FDH-coupled assay
T1 sequence (Q9H3R0 whole entry): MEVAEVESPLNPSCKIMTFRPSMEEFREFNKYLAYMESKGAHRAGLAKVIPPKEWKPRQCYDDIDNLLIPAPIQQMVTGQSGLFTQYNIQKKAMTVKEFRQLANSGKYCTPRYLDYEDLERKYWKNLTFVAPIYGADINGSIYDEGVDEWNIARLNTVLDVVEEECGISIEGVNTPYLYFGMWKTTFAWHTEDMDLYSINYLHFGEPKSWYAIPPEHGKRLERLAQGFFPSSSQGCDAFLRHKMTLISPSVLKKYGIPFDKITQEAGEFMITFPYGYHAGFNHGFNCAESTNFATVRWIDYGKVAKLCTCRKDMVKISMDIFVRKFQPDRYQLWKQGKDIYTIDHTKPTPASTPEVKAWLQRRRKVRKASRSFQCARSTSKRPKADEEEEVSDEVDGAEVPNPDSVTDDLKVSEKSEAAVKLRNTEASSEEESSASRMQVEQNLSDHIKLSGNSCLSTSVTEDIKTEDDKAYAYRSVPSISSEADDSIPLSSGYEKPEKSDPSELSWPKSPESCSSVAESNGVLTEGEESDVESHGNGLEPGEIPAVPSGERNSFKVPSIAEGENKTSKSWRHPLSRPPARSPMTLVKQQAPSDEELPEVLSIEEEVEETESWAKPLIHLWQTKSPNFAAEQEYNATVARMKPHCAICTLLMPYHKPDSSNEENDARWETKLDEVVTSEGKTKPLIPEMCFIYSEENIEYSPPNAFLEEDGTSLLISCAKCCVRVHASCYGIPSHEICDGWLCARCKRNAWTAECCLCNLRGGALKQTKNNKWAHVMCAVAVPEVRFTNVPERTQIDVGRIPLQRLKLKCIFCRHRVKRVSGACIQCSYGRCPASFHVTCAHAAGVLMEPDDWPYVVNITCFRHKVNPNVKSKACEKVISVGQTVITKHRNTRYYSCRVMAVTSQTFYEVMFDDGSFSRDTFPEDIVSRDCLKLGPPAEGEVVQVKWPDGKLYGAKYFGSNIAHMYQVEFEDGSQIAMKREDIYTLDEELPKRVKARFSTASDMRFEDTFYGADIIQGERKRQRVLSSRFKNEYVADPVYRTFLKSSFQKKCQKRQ

[2] = molecular target: Alcohol dehydrogenase class-3 (Homo sapiens) (UniProt P11766); experiment: Inhibition of FDH using formalin as substrate at 0.01 to 500 uM after 30 mins by fluorimetry
[3] = molecular target: T2, Lysine-specific demethylase 4C (Homo sapiens) (UniProt Q9H3R0); details: 500 uM
T2 sequence (whole entry): T1 sequence (Q9H3R0 whole entry)
Description: Inhibition of KDM4C catalytic core-mediated demethylation of ARK(Me)3STGGK at 500 uM after 30 mins by FDH-coupled assay in presence of increasing concentration of Fe(II) ions

[4] = molecular target: Lysine-specific demethylase 6A (Homo sapiens, UniProt O15550); experiment: Inhibition of KDM6A
Sequence of Lysine-specific demethylase 6A (O15550 whole entry): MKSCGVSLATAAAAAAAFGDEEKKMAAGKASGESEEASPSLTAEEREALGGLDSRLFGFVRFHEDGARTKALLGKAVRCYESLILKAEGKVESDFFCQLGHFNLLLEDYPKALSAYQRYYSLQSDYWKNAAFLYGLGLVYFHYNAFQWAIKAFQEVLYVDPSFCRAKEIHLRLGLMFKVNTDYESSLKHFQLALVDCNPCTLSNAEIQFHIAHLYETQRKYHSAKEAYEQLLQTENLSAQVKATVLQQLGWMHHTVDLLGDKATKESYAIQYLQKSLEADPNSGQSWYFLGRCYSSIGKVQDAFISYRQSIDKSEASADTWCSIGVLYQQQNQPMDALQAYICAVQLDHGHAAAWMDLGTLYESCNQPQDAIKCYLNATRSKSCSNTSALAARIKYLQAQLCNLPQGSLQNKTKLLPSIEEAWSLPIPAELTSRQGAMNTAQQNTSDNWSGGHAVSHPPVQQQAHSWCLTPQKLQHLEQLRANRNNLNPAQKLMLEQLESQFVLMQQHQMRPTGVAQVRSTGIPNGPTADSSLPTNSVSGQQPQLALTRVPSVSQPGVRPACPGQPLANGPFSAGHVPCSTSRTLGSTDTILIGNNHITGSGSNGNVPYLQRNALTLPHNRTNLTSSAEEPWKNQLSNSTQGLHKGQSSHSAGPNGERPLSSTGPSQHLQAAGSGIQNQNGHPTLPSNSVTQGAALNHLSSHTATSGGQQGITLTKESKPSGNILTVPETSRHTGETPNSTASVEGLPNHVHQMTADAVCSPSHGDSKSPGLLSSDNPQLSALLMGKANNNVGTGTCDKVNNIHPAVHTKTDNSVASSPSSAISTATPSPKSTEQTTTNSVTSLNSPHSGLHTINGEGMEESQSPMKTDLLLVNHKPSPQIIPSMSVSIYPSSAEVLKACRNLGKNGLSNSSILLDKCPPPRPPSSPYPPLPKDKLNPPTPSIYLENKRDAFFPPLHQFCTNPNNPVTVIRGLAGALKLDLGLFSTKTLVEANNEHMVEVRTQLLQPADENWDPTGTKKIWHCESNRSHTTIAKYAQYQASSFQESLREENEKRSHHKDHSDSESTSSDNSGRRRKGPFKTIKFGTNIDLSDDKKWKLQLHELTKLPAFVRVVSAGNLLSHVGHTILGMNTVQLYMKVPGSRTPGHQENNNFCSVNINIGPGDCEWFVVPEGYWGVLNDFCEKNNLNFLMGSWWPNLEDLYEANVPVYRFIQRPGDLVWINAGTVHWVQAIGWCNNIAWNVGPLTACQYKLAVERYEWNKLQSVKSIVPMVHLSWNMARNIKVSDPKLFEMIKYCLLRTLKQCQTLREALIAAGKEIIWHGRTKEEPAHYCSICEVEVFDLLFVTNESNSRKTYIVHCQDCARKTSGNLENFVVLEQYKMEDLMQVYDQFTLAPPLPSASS

Sequence of Alcohol dehydrogenase class-3 (Homo sapiens) (P11766 2-374 limits assumed): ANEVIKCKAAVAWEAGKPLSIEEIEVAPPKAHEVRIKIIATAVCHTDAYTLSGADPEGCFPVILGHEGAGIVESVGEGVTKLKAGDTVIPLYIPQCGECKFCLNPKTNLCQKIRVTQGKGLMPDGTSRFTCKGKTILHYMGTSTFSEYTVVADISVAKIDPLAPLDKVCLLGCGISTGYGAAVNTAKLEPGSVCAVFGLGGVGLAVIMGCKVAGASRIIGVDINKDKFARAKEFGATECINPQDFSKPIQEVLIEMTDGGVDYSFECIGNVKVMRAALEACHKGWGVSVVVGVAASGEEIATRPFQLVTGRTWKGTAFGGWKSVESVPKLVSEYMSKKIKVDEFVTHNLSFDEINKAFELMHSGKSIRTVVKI

Row | Compound | IC50 [1] | Ki [1] | inhibition [2] | inhibition [3] | IC50 [4]
1 | CNC(=O)c1nnn(C)c1O | > 200 µM | > 200 µM |  |  | 
2 | COC(=O)c1n[nH]c(C(=O)OC)c1O | 30 µM | 51 µM | inactive | inactive | 
3 | Clc1csc(-c2ccccc2)n1 | > 200 µM | > 200 µM |  |  | 
4 | Cc1c(C(=O)O)cnn1C | > 200 µM | > 200 µM |  |  | 
5 | COc1ccc(Cn2nnc(C(=O)O)c2N)cc1 | > 200 µM | > 200 µM |  |  | 
6 | [O-][n+]1nn(-c2ccccc2)c(CO)c1Cl | > 200 µM | > 200 µM |  |  | 
7 | O=C(O)c1cnnn1-c1ccccc1 | > 200 µM | > 200 µM |  |  | 
8 | Cc1c(O)c(C(=O)c2ccccc2)nn1-c1ccccc1 | > 200 µM | > 200 µM |  |  | 
9 | O=C(O)c1cc[nH]n1 | > 200 µM | > 200 µM |  |  | 
10 | O=C(O)c1cn(-c2ccccc2)nn1 | > 200 µM | > 200 µM |  |  | 
11 | O=C(O)c1cc([N+](=O)[O-])[nH]n1 | > 200 µM | > 200 µM |  |  | 
12 | Nc1cn(-c2ccccc2)nn1 | > 200 µM | > 200 µM |  |  | 
13 | Cc1c(O)c(C=O)nn1-c1ccccc1 | 100 µM | 142 µM | inactive |  | 
14 | Cn1cc(C(=O)O)nn1 | > 200 µM | > 200 µM |  |  | 
15 | Cc1ccc(Cn2cc(C(=O)O)nn2)cc1 | > 200 µM | > 200 µM |  |  | 
16 | O=C(O)c1cc(C(=O)O)[nH]n1 | > 200 µM | > 200 µM |  |  | 
17 | [O-][n+]1nn(-c2ccccc2)c(Cl)c1Br | > 200 µM | > 200 µM |  |  | 
18 | OCC1C(Cl)=NNN1c1ccccc1 (centres undefined) | > 200 µM | > 200 µM |  |  | 
19 | Brc1cn(Cc2ccccc2)nn1 | > 200 µM | > 200 µM |  |  | 
20 | COc1sc(-c2ccccc2)nc1Cl | > 200 µM | > 200 µM |  |  | 
21 | O=C1CN=C(c2ccccc2)c2cc([N+](=O)[O-])ccc2N1 [NITRAZEPAM] | > 200 µM | > 200 µM |  |  | 
22 | Cn1cc(Cl)nc1Cl | > 200 µM | > 200 µM |  |  | 
23 | O=C(O)c1ccnc(C(=O)O)c1 |  |  |  |  | 177 µM
24 | CCOC(=O)c1nnn(-c2ccccc2)c1NC(C)=O | > 200 µM | > 200 µM |  |  | 
25 | Cc1nn(C)n(C)c1=S | > 200 µM | > 200 µM |  |  | 
26 | Cn1c(Cl)cnc1CO | > 200 µM | > 200 µM |  |  | 
